The numbers were not newly measured in patent US20170173097A1, “COMPOSITIONS FOR ENHANCING DETOXIFICATION AND USES THEREOF” (Specialty Nutrition Group, Inc., priority 2014, published 2017), which cites them from elsewhere.

The structures appear in SMILES notation. Read-outs that look alike come from different tables or passages of the source.

In the data set the test system is beta-glucuronidase.

As for `O=C([O-])[C@@H](O)[C@@H](O)[C@H](O)[C@@H](O)C(=O)[O-].[Ca+2]` [calcium D-glucarate], the inhibition of beta-glucuronidase reads like this: (in the blood) 57%; (in the intestines) 39%; (in the liver) 44%; (in the lungs) 37%.
